The results in this text go back to US12421240B2, “Hydropyrazino[1,2-d][1,4]diazepine compounds for the treatment of autoimmune disease” (Hoffmann-La Roche Inc., priority 2019, dated 2025).

Each structure is given as a SMILES string. pIC50: −log10 of the molar value.

This experiment has as its target T1, human TLR7 (Homo sapiens, UniProt Q9NYK1).
T1 sequence (Q9NYK1 27-1049): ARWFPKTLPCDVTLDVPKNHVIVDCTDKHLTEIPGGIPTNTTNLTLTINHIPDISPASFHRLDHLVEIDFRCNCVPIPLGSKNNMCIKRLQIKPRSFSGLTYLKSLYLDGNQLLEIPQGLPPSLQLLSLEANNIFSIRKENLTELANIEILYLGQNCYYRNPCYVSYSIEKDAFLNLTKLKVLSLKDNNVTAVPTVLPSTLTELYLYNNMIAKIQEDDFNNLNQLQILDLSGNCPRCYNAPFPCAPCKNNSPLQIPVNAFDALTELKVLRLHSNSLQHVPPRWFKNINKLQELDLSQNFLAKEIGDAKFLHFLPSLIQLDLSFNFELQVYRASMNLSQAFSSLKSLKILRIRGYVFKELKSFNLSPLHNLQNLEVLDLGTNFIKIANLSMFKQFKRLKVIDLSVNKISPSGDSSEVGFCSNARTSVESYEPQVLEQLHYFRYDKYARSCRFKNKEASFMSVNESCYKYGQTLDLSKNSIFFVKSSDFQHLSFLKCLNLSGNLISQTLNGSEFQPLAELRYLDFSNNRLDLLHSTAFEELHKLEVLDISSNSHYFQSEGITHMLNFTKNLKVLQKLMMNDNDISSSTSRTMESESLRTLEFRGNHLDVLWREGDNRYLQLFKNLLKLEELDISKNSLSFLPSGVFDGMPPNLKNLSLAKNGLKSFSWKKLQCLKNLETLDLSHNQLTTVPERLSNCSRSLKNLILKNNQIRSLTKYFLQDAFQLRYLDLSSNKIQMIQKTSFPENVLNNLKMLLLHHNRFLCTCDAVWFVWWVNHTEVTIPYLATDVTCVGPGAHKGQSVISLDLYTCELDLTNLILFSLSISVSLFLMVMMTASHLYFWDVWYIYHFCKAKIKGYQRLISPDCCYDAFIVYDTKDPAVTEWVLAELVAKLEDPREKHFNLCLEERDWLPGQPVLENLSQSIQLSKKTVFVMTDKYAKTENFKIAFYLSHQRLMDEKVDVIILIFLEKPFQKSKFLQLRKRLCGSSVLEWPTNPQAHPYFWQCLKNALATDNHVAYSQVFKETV
In words: HEK293-Blue-hTLR-7 cells assay (SEAP reporter, R848 stimulation). It counts as cell-based. The conditions noted are these: HEK293-Blue-hTLR7 cells, R848 ligand, 20 hrs; read-out: HEK/hTLR7 IC50. On the procedure:
The following tests were carried out in order to determine the activity of the compounds of formula (I), (Ia) or (Ib) in HEK293-Blue-hTLR-7/8/9 cells assay.
HEK293-Blue-hTLR-7 Cells Assay:
A stable HEK293-Blue-hTLR-7 cell line was purchased from InvivoGen (Cat. #: hkb-htlr7, San Diego, California, USA). These cells were originally designed for studying the stimulation of human TLR7 by monitoring the activation of NF-κB. A SEAP (secreted embryonic alkaline phosphatase) reporter gene was placed under the control of the IFN-β minimal promoter fused to five NF-κB and AP-1-binding sites. The SEAP was induced by activating NF-κB and AP-1 via stimulating HEK-Blue hTLR7 cells with TLR7 ligands. Therefore the reporter expression was declined by TLR7 antagonist under the stimulation of a ligand, such as R848 (Resiquimod), for incubation of 20 hrs. The cell culture supernatant SEAP reporter activity was determined using QUANTI-Blue™ kit (Cat. #: rep-qb1, Invivogen, San Diego, Ca., USA) at a wavelength of 640 nm, a detection medium that turns purple or blue in the presence of alkaline phosphatase.
HEK293-Blue-hTLR7 cells were incubated at a density of 250,000-450,000 cells/mL in a volume of 170 μL in a 96-well plate in Dulbecco's Modified Eagle's medium (DMEM) containing 4.5 g/L glucose, 50 U/mL penicillin, […], […], 2 mM L-glutamine, 10% (v/v) heat-inactivated fetal bovine serum with addition of 20 μL test compound in a serial dilution in the presence of final DMSO at 1% and 10 μL of 20 uM R848 in above DMEM, perform incubation under 37° C. in a CO2 incubator for 20 hrs. Then 20 μL of the supernatant from each well was incubated with 180 μL Quanti-blue substrate solution at 37° C. for 2 hrs and the absorbance was read at 620655 nm using a spectrophotometer. The signaling pathway that TLR7 activation leads to downstream NF-κB activation has been widely accepted, and therefore similar reporter assay was modified for evaluating TLR7 antagonist.
As for `C[C@@H]1CN(c2ccc(C#N)c3ncccc23)C[C@@H]2CCN(c3ccc(N4CCNCC4)nc3)CCN21` [Example 1, 5-[(4R,10aS)-4-methyl-8-(6-piperazin-1-yl-3-pyridyl)-1,3,4,6,7,9,10,10a-octahydropyrazino [1,2-d][1,4]diazepin-2-yl]quinoline-8-carbonitrile], the pIC50 is 7.05. With `C[C@@H]1CN(c2ccc(C#N)c3ncccc23)C[C@@H]2CCN(c3cnc(N4CCNCC4)nc3)CCN21` [Example 2, 5-[(4R,10aS)-4-methyl-8-(2-piperazin-1-ylpyrimidin-5-yl)-1,3,4,6,7,9,10,10a-octahydropyrazino[1,2-d][1,4]diazepin-2-yl]quinoline-8-carbonitrile] the figure was 7.23; with `C[C@@H]1CN(c2ccc(C#N)c3ncccc23)C[C@@H]2CCN(c3ccc([C@H]4CNCCO4)cc3)CCN21` [Example 3, 5-[(4R,10aS)-4-methyl-8-[4-[(2S)-morpholin-2-yl]phenyl]-1,3,4,6,7,9,10,10a-octahydropyrazino[1,2-d][1,4]diazepin-2-yl]quinoline-8-carbonitrile], 7.27. With `C[C@@H]1CN(c2ccc(C#N)c3ncccc23)C[C@@H]2CCN(c3cncc4c3CCNC4)CCN21` [Example 4, 5-[(4R,10aS)-4-methyl-8-(5,6,7,8-tetrahydro-2,7-naphthyridin-4-yl)-1,3,4,6,7,9,10,10a-octahydropyrazino[1,2-d][1,4]diazepin-2-yl]quinoline-8-carbonitrile] the figure was 7.75; with `C[C@@H]1CN(c2ccc(C#N)c3ncccc23)C[C@@H]2CCN(c3ccc4c(n3)CNCC4)CCN21` [Example 5, 5-[(4R,10aS)-4-methyl-8-(5,6,7,8-tetrahydro-1,7-naphthyridin-2-yl)-1,3,4,6,7,9,10,10a-octahydropyrazino[1,2-d][1,4]diazepin-2-yl]quinoline-8-carbonitrile], 7.41. `C[C@@H]1CN(c2ccc(C#N)c3ncccc23)C[C@@H]2CCN(c3ccc4c(n3)CCNC4)CCN21` [Example 6, 5-[(4R,10aS)-4-methyl-8-(5,6,7,8-tetrahydro-1,6-naphthyridin-2-yl)-1,3,4,6,7,9,10,10a-octahydropyrazino[1,2-d][1,4]diazepin-2-yl]quinoline-8-carbonitrile]: the pIC50 is 7.32.

With `C[C@@H]1CN(c2ccc(C#N)c3ncccc23)C[C@@H]2CCN(c3cc4c(cn3)CNCC4)CCN21` [Example 7, 5-[(4R,10aS)-4-methyl-8-(5,6,7,8-tetrahydro-2,7-naphthyridin-3-yl)-1,3,4,6,7,9,10,10a-octahydropyrazino[1,2-d][1,4]diazepin-2-yl]quinoline-8-carbonitrile], the pIC50 is 7.21. With `C[C@@H]1CN(c2ccc(C#N)c3ncccc23)C[C@@H]2CCN(Cc3cc4c(cn3)CNCC4)CCN21` [Example 8, 5-[(4R,10aS)-4-methyl-8-(5,6,7,8-tetrahydro-2,7-naphthyridin-3-ylmethyl)-1,3,4,6,7,9,10,10a-octahydropyrazino[1,2-d][1,4]diazepin-2-yl]quinoline-8-carbonitrile] the figure was 7.84; with `C[C@@H]1CN(c2ccc(C#N)c3ncccc23)C[C@@H]2CCN(Cc3cc4c(cn3)CCNC4)CCN21` [Example 9, 5-[(4R,10aS)-4-methyl-8-(5,6,7,8-tetrahydro-2,6-naphthyridin-3-ylmethyl)-1,3,4,6,7,9,10,10a-octahydropyrazino[1,2-d][1,4]diazepin-2-yl]quinoline-8-carbonitrile], 8.09; with `C[C@@H]1CN(c2ccc(C#N)c3ncccc23)C[C@@H]2CCN(Cc3cnc4c(c3)CNCC4)CCN21` [Example 10, 5-[(4R,10aS)-4-methyl-8-(5,6,7,8-tetrahydro-1,6-naphthyridin-3-ylmethyl)-1,3,4,6,7,9,10,10a-octahydropyrazino[1,2-d][1,4]diazepin-2-yl]quinoline-8-carbonitrile], 8.03. For the molecule `C[C@@H]1CN(c2ccc(C#N)c3ncccc23)C[C@@H]2CCN(Cc3ccc4c(c3)CCNC4)CCN21` [Example 11, 5-[(4R,10aS)-4-methyl-8-(1,2,3,4-tetrahydroisoquinolin-6-ylmethyl)-1,3,4,6,7,9,10,10a-octahydropyrazino[1,2-d][1,4]diazepin-2-yl]quinoline-8-carbonitrile], the pIC50 was 8.21.

Take `C[C@@H]1CN(c2ccc(C#N)c3ncccc23)C[C@@H]2CCN(Cc3ccc4c(c3)CNCC4)CCN21` [Example 12, 5-[(4R,10aS)-4-methyl-8-(1,2,3,4-tetrahydroisoquinolin-7-ylmethyl)-1,3,4,6,7,9,10,10a-octahydropyrazino[1,2-d][1,4]diazepin-2-yl]quinoline-8-carbonitrile]: the pIC50 was 8.35. In the case of `C[C@@H]1CN(c2ccc(C#N)c3ncccc23)C[C@@H]2CCN(Cc3ncc(N4CCNCC4)cn3)CCN21` [Example 13, 5-[(4R,10aS)-4-methyl-8-[(5-piperazin-1-ylpyrimidin-2-yl)methyl]-1,3,4,6,7,9,10,10a-octahydropyrazino[1,2-d][1,4]diazepin-2-yl]quinoline-8-carbonitrile], the pIC50 was 7.30. `C[C@@H]1CN(c2ccc(C#N)c3ncccc23)C[C@@H]2CCN(Cc3cnc(N4CCNCC4)nc3)CCN21` [Example 14, 5-[(4R,10aS)-4-methyl-8-[(2-piperazin-1-ylpyrimidin-5-yl)methyl]-1,3,4,6,7,9,10,10a-octahydropyrazino[1,2-d][1,4]diazepin-2-yl]quinoline-8-carbonitrile]: the pIC50 is 8.74.

As for `C[C@@H]1CN(c2ccc(C#N)c3ncccc23)C[C@@H]2CCN(Cc3cnc(N4CCNCC4)cn3)CCN21` [Example 15, 5-[(4R,10aS)-4-methyl-8-[(5-piperazin-1-ylpyrazin-2-yl)methyl]-1,3,4,6,7,9,10,10a-octahydropyrazino[1,2-d][1,4]diazepin-2-yl]quinoline-8-carbonitrile], the pIC50 was 8.66. Next, `C[C@@H]1CN(c2ccc(C#N)c3ncccc23)C[C@@H]2CCN(Cc3cncc(N4CCNCC4)c3)CCN21` [Example 16, 5-[(4R,10aS)-4-methyl-8-[(5-piperazin-1-yl-3-pyridyl)methyl]-1,3,4,6,7,9,10,10a-octahydropyrazino[1,2-d][1,4]diazepin-2-yl]quinoline-8-carbonitrile]: 7.95. With `C[C@@H]1CN(c2ccc(C#N)c3ncccc23)C[C@@H]2CCN(Cc3ccc(N4CCNCC4)nc3)CCN21` [Example 17, 5-[(4R,10aS)-4-methyl-8-[(6-piperazin-1-yl-3-pyridyl)methyl]-1,3,4,6,7,9,10,10a-octahydropyrazino[1,2-d][1,4]diazepin-2-yl]quinoline-8-carbonitrile] the figure was 8.92; with `C[C@@H]1CN(c2ccc(C#N)c3ncccc23)C[C@@H]2CCN(Cc3cccc(N4CCNCC4)n3)CCN21` [Example 18, 5-[(4R,10aS)-4-methyl-8-[(6-piperazin-1-yl-2-pyridyl)methyl]-1,3,4,6,7,9,10,10a-octahydropyrazino[1,2-d][1,4]diazepin-2-yl]quinoline-8-carbonitrile], 7.92.
